Patent publication US20060079453A1, “Hla binding peptides and their uses” (priority 2002, published 2006)
Values joined by “and” are separate entries in the source; they are usually repeats but may differ in a detail not shown here. Equal entries are not always repeated. Where two headings read alike, the source gives them in different places. No end group written: not given here.

Key:
HLA-A*0101 = HLA-A*0101 (Homo sapiens, UniProt P04439, A114D/A174V/A182V/D101N/D185E/E176A/E190D/L180R/Q94H/R68K/S129P/T187R/V100A/V91M/W191G); assay: biochemical; type: binding
HLA-A*2902 = HLA-A*2902 (Homo sapiens, UniProt P04439, A270S/D101N/D185E/E176V/E277Q/E87Q/F33T/G231S/H175R/I121M/I218V/I322F/K168Q/L300P/L318F/M331R/P208A/P217A/Q86L/T323A/T345S/V100A/V358M); assay: MHC molecular binding / Capture assay, IC50: A*2902
HLA-A*3002 = HLA-A*3002 (Homo sapiens, UniProt P04439, D101N/D140H/D185E/E176R/F33S/G80R/H175R/K168Q/Q94H/R138E/R41S/V100E); assay: biochemical; type: binding
HLA-B*4001 = HLA-B*4001 (Homo sapiens, UniProt P01889, A65T/A93T/A95T/D138N/D98Y/E176V/E69K/N87E/Q56L/Q94N/R180L/S121R/S35A/S48T/T167S/V36M/W171L/Y33H/Y91S); assay: biochemical; type: binding
HLA-B*1801 = HLA-B*1801 (Homo sapiens, UniProt P01889, A329T/A93T/A95T/C349S/D201E/D54G/D98Y/E176V/E187T/E204Q/E69T/K202T/Q94N/R155S/R180L/S121R/V306I/Y140S/Y195H/Y33H/Y91S); assay: biochemical; type: binding
HLA-B*4403 = HLA-B*4403 (Homo sapiens, UniProt P01889, A223V/A65T/A93T/A95T/D201E/D98Y/E176V/E187L/E204Q/E69K/G107R/H137Y/K202T/L105A/L119I/N104T/N87E/Q56L/Q94N/R106L/R155S/R180L/S101N/S121R/S35A/S48T/T118I/V36M/W191S/Y140D/Y91S); assay: biochemical; type: binding
HLA-B*4501 = HLA-B*4501 (Homo sapiens, UniProt P01889, A329T/A65T/A93T/A95T/C349S/D138N/D201E/D98Y/E176V/E187L/E204Q/E69K/H137Y/K202T/L119W/N87E/Q56L/Q94N/R155S/R180D/S121R/S35A/S48T/V127L/V306I/V36M/W191S/Y140L/Y33H/Y91S); assay: biochemical; type: binding
HLA-B*4402 = HLA-B*4402 (Homo sapiens, UniProt P01889, A223V/A65T/A93T/A95T/D201E/D98Y/E176V/E187L/E204Q/E69K/G107R/H137Y/K202T/L105A/L119I/N104T/N87E/Q56L/Q94N/R106L/R155S/R180D/S101N/S121R/S35A/S48T/T118I/V36M/W191S/Y140D/Y91S); assay: biochemical; type: binding
HLA-B*4002 = HLA-B*4002 (Homo sapiens, UniProt P01889, A65T/A93T/A95T/D138N/D201E/D98Y/E176V/E204Q/E69K/K202T/N87E/Q56L/Q94N/R180L/S48T/Y33H/Y91S); assay: biochemical; type: binding
[1] = Binding affinity to A*0101 (expressed as an IC50)

AADAAAAKY was tested, and the IC50 (HLA-A*0101; [1]) was 20 nM.
With ISDYRHYNY the IC50 (HLA-A*2902) was 45 nM and the IC50 (HLA-A*0101; [1]) was 16 nM and 28 nM.
LTEYVLDLY was tested, and the IC50 (HLA-A*2902) was 941 nM, the IC50 (HLA-A*3002) was 81 nM and the IC50 (HLA-A*0101; [1]) was 6 nM and 8 nM.
In the case of RERPDNYV, the IC50 (HLA-B*4001; read-out: B*4001) is reported as 71600 nM, the IC50 (HLA-B*1801; read-out: B*1801) is reported as > 73800 nM and the IC50 (HLA-B*4403; read-out: B*4403) is reported as > 34500 nM. For the same molecule, the IC50 (HLA-B*4501; read-out: B*4501) was 34600 nM, the IC50 (HLA-B*4402; read-out: B*4402) was > 67600 nM and the IC50 (HLA-B*4002; read-out: B*4002) was 62 nM.
In the case of LIENELMNY, the IC50 (HLA-A*2902; Binding affinity to A*2902 (expressed as an IC50)) is reported as 3940 nM and the IC50 (HLA-A*0101; [1]) is reported as 412 nM.
For `CC[C@H](C)[C@H](NC(=O)[C@@H](NC(=O)[C@H](CC(C)C)NC(=O)[C@H](CC(=O)O)NC(=O)[C@@H](NC(=O)[C@@H](N)Cc1ccccc1)[C@@H](C)O)[C@@H](C)O)C(=O)N[C@H](C(=O)N[C@@H](Cc1ccc(O)cc1)C(=O)O)C(C)C`, the IC50 (HLA-A*3002) was 39000 nM and the IC50 (HLA-A*0101; [1]) was 16 nM and 34 nM.
`CC[C@H](C)[C@H](NC(=O)[C@H](CO)NC(=O)[C@H](Cc1c[nH]cn1)NC(=O)[C@@H](NC(=O)[C@H](CO)NC(=O)[C@@H](N)CC(C)C)C(C)C)C(=O)N[C@@H](CCC(N)=O)C(=O)N[C@@H](CC(N)=O)C(=O)N[C@@H](CC(=O)O)C(=O)N[C@@H](Cc1ccc(O)cc1)C(=O)O` showed an IC50 (HLA-A*0101; [1]) of 279 nM.
For ATDNYYIVTY, the IC50 (HLA-A*3002) was 65 nM and the IC50 (HLA-A*0101; [1]) was 7.4 nM and 19 nM.
For GELSYLNV, the IC50 (HLA-B*1801; B*1801) was > 24800 nM, the IC50 (HLA-B*4403; B*4403) was 23700 nM and the IC50 (HLA-B*4501; B*4501) was 784 nM. The IC50 (HLA-B*4402; B*4402) was 19000 nM and the IC50 (HLA-B*4002; B*4002) was 100 nM.
Molecule LEASISGKY has an IC50 (HLA-A*3002) of 87 nM and an IC50 (HLA-A*0101; [1]) of 57800 nM.
YSDISEYRHY gave an IC50 (HLA-A*2902) of 1350 nM and an IC50 (HLA-A*0101; [1]) of 3.8 nM.
TLEGPGPGGLY was tested, and the IC50 (HLA-A*3002; Binding affinity to A*3002 (expressed as an IC50)) was 40 nM and the IC50 (HLA-A*0101; [1]) was 11 nM.
Molecule SEAPKYAIL has an IC50 (HLA-B*1801; B*1801) of 2260 nM, an IC50 (HLA-B*4403; B*4403) of 2260 nM and an IC50 (HLA-B*4501; B*4501) of 479 nM. The IC50 (HLA-B*4402; B*4402) was 762 nM and the IC50 (HLA-B*4002; B*4002) was 7.8 nM.
In the case of ATSNYYIVTY, the IC50 (HLA-A*0101; [1]) is reported as 428 nM.
With AEDLWVTVY the IC50 (HLA-B*1801; B*1801) was 354 nM, the IC50 (HLA-B*4403; B*4403) was 469 nM and the IC50 (HLA-B*4501; B*4501) was 1840 nM. The IC50 (HLA-B*4402; B*4402) was 2330 nM and the IC50 (HLA-B*4002; B*4002) was 3520 nM.
QEILDLWV was tested, and the IC50 (HLA-B*1801; B*1801) was > 22800 nM, the IC50 (HLA-B*4403; B*4403) was 5920 nM and the IC50 (HLA-B*4501; B*4501) was 5500 nM. For the same molecule, the IC50 (HLA-B*4402; B*4402) was > 81400 nM and the IC50 (HLA-B*4002; B*4002) was 1720 nM.
With PENLWVTVY the IC50 (HLA-B*4001) was > 72700 nM, the IC50 (HLA-B*1801) was 190 nM and the IC50 (HLA-B*4403) was > 425000 nM. For the same molecule, the IC50 (HLA-B*4501) was > 49000 nM, the IC50 (HLA-B*4402) was > 167000 nM and the IC50 (HLA-B*4002) was > 155000 nM.
Molecule AENLNVTVY has an IC50 (HLA-B*4001) of 564 nM, an IC50 (HLA-B*1801) of 198 nM and an IC50 (HLA-B*4403) of 358 nM. It also gave an IC50 (HLA-B*4501) of 2440 nM, an IC50 (HLA-B*4402) of 447 nM and an IC50 (HLA-B*4002) of 3540 nM.
In the case of DENLWVTVY, the IC50 (HLA-B*4001) is reported as > 72700 nM, the IC50 (HLA-B*1801) is reported as 26 nM and the IC50 (HLA-B*4403) is reported as 988 nM. For the same molecule, the IC50 (HLA-B*4501; read-out: B*4501) was 49000 nM, the IC50 (HLA-B*4402) was 4590 nM and the IC50 (HLA-B*4002) was 41100 nM.
Molecule YSDVSEFRWY has an IC50 (HLA-A*2902) of 1840 nM and an IC50 (HLA-A*0101; [1]) of 3.9 nM.
ITKILYQSNPY was tested, and the IC50 (HLA-A*2902) was 64900 nM and the IC50 (HLA-A*0101; [1]) was > 10100 nM.
For AENLWVTTY, the IC50 (HLA-B*4001) was 280 nM, the IC50 (HLA-B*1801) was 28 nM and the IC50 (HLA-B*4403) was 26 nM. The IC50 (HLA-B*4501) was 48 nM, the IC50 (HLA-B*4402) was 37 nM and the IC50 (HLA-B*4002) was 191 nM.
ISEYRHYQY showed an IC50 (HLA-A*0101; [1]) of 40 nM.
For WVYHTQGYY, the IC50 (HLA-A*3002) was 5.6 nM and the IC50 (HLA-A*0101; [1]) was 703 nM.
AENLWVTVC was tested, and the IC50 (HLA-B*1801) was 178000 nM, the IC50 (HLA-B*4403) was 2270 nM and the IC50 (HLA-B*4501) was 146 nM. The IC50 (HLA-B*4402) was 5590 nM and the IC50 (HLA-B*4002) was 1420 nM.
KEKGGLDGLI was tested, and the IC50 (HLA-B*1801; B*1801) was > 22800 nM, the IC50 (HLA-B*4403; B*4403) was 3630 nM and the IC50 (HLA-B*4501; B*4501) was 9990 nM. The IC50 (HLA-B*4402; B*4402) was 14700 nM and the IC50 (HLA-B*4002; B*4002) was 233 nM.
In the case of ETRHYCYSLY, the IC50 (HLA-A*3002) is reported as 10 nM and the IC50 (HLA-A*0101; [1]) is reported as 43 nM.
In the case of SYQHFRIKLLL, the IC50 (HLA-A*0101; read-out: Binding affinity to A*0101 (expressed as an IC50)) is reported as > 83300 nM.
MDIDPYKEF showed an IC50 (HLA-B*4001; B*4001) of 3700 nM, an IC50 (HLA-B*1801; B*1801) of 169000 nM and an IC50 (HLA-B*4403; B*4403) of 1950 nM. It also gave an IC50 (HLA-B*4501; B*4501) of 2610 nM, an IC50 (HLA-B*4402; B*4402) of 21700 nM and an IC50 (HLA-B*4002; B*4002) of 382 nM.
In the case of AENLWVTVY, the IC50 (HLA-B*4001; B*4001) is reported as 1360 nM and 1580 nM, the IC50 (HLA-B*1801; B*1801) is reported as 51 nM and 155 nM and 122 nM and the IC50 (HLA-B*4403; B*4403) is reported as 43 nM and 284 nM. The IC50 (HLA-B*4501; B*4501) was 68 nM and 200 nM and 301 nM, the IC50 (HLA-B*4402; B*4402) was 66 nM and 308 nM and the IC50 (HLA-B*4002; B*4002) was 90 nM and 547 nM.
